Like-named read-outs stand apart in the source and are kept apart here.
Tested on: subgenomic HCV replicon in Huh-7 cells
Assay: Cell-Based HCV Replication Assay (replicon, NS3 Cell-ELISA)
Parameters: species or system hepatitis C virus (HCV)
Conditions: Hepatitis C virus
Description: Another suitable assay is the cellular Replicon or rheplisa assay described as follows:
Cell-Based HCV Replication Assay
Cell clones that stably maintain subgenomic HCV replicon were obtained by transfecting Huh-7 cells with an RNA replicon identical to I377neo/NS3-3′/wt described by V. Lohmann et al., 285 SCIENCE 110 (Jul. 2, 1999) (EMBL-GENBANK No. AJ242652), followed by selection with neomycin sulfate (G418). Viral replication was monitored by measuring the expression of the NS3 protein by an ELISA assay performed directly on cells grown in 96-well microtiter plates (Cell-ELISA) using the anti-NS3 monoclonal antibody 10E5/24 (as described in International Patent Application Publication WO 02/59321). Cells were seeded into 96 well plates at a density of 10^4 cells per well in a final volume of 0.1 ml of DMEM/10% FCS. Two hours after plating, 50 μl of DMEM/10% FCS containing a 3× concentration of inhibitor were added, cells were incubated for 96 hours and then fixed for 10 minutes with ice-cold isopropanol. Each condition was tested in duplicate and average absorbance values were used for calculations. The cells were washed twice with PBS, blocked with 5% non-fat dry milk in PBS+0.1% TRITON X-100+0.02% SDS (PBSTS) and then incubated o/n at 4° C. with the 10E5/24 mab diluted in Milk/PBSTS. After washing 5 times with PBSTS, the cells were incubated for 3 hours at room temperature with Fe-specific anti-mouse IgG conjugated to alkaline phosphatase (Sigma), diluted in Milk/PBSTS. After washing again as above, the reaction was developed with p-nitrophenyl phosphate disodium substrate (Sigma) and the absorbance at 405/620 nm read at intervals. For calculations, we used data sets where samples incubated without inhibitors had absorbance values comprised between 1 and 1.5. The inhibitor concentration that reduced by 50% the expression of NS3 (IC50) was calculated by fitting the data to the Hill equation, Fraction inhibition=1−(Ai−b)/(A0−b)=[I]^n/([I]+IC50) where: • Ai=absorbance value of HBI10 cells supplemented with the indicated inhibitor concentration. • A0=absorbance value of HBI10 cells incubated without inhibitor. • b=absorbance value of Huh-7 cells plated at the same density in the same microtiter plates and incubated without inhibitor. • n=Hill coefficient.

[1] = Huh-7 replicon cells, NS3 expression by Cell-ELISA, 96 hours, read-out: Cell-based HCV Replication Assay: IC50
[2] = Huh-7 cells with subgenomic HCV replicon, NS3 expression by Cell-ELISA, 96 hours incubation, read-out: Cell based HCV Replication Assay-IC50
[3] = Huh-7, 96 h, read-out: Cell based HCV Replication Assay-IC50

Row | SMILES | IC50 [2] [nM] | also measured
1 | C=C[C@@H]1C[C@]1(NC(=O)[C@@H]1C[C@@H]2CN1C(=O)[C@H](C1CCCCC1)NC(=O)N1CC(C1)OCC/C=C/c1cc3c(cc(OCC)nc3cc1OC)O2)C(=O)NS(=O)(=O)C1CC1 [Example 44, (3R,5S,8S,17E)-8-Cyclohexyl-N-((1R,2S)-1-{[(cyclopropylsulfonyl)amino]carbonyl}-2-vinylcyclopropyl)-24-ethoxy-20-methoxy-7,10-dioxo-2,14-dioxa-6,9,11,23-tetraazapentacyclo[17.6.2.1^3,6.1^11,13.0^22,26]nonacosa-1(25),17,19,21,23,26-hexaene-5-carboxamide] | – | IC50 [1]: 6 nM
2 | C=CC1C[C@]1(NC(=O)[C@@H]1C[C@@H]2CN1C(=O)[C@H](C1CCCCC1)NC(=O)N1CCC(CC1)OCCC/C=C/c1cc3c(cc(OCC)nc3cc1OC)O2)C(=O)NS(=O)(=O)C1CC1 (stereo in doubt) [Example 32, (3R,5S,8S,19E)-8-cyclohexyl-N-((1R,2R)-1-{[(cyclopropylsulfonyl)amino]carbonyl}-2-vinylcyclopropyl)-26-ethoxy-22-methoxy-7,10-dioxo-2,15-dioxa-6,9,11,25-tetraazapentacyclo [19.6.2.2^11,14.1^3,6.0^24,28] dotriaconta-1(27),19,21,23,25,28-hexaene-5-carboxamide] | 10 | –
3 | C=C[C@@H]1C[C@]1(NC(=O)[C@@H]1C[C@@H]2CN1C(=O)[C@H](C(C)(C)C)NC(=O)N1CCC[C@@H]1CC/C=C/c1cccc3c1CN(C3)C(=O)O2)C(=O)NS(=O)(=O)C1CC1 [Example 3, (1R,12E,16S,23S,26S)-23-tert-butyl-N-((1R,2S)-1-{[(cyclopropylsulfonyl)amino]carbonyl}-2-vinylcyclopropyl)-3,21,24-trioxo-2-oxa-4,20,22,25-tetraazapentacyclo [23.2.1.1^4,7.0^6,11.0^16,20] nonacosa-6,8,10,12-tetraene-26-carboxamide] | 16 | –
4 | C=C[C@@H]1C[C@]1(NC(=O)[C@@H]1C[C@@H]2CN1C(=O)[C@H](C1CCCC1)CNC(=O)N1CC[C@H](COCCCc3nc4ccc(OC)cc4cc3O2)C1)C(=O)NS(=O)(=O)C1CC1 [Example 33, (1R,18S,24S,27S)-24-cyclopentyl-N-((1R,2R)-1-{[(cyclopropylsulfonyl)amino]carbonyl}-2-vinylcyclopropyl)-7-methoxy-22,25-dioxo-2,16-dioxa-11,21,23,26-tetraazapentacyclo [24.2.1.1^18,21.0^3,12.0^5,10] triaconta-3(12),4,5,7,9,10-hexaene-27-carboxamide] | > 100 | –
5 | C=C[C@@H]1C[C@]1(NC(=O)[C@@H]1C[C@@H]2CN1C(=O)[C@H](C(C)(C)C)NC(=O)N1CCC[C@H]1CC/C=C/c1cccc3c1CN(C3)C(=O)O2)C(=O)NS(=O)(=O)C1CC1 [Example 4, (1R,12E,16R,23S,26S)-23-tert-butyl-N-((1R,2S)-1-{[(cyclopropylsulfonyl)amino]carbonyl}-2-vinylcyclopropyl)-3,21,24-trioxo-2-oxa-4,20,22,25-tetraazapentacyclo [23.2.1.1^4,7.0^6,11.0^16,20] nonacosa-6,8,10,12-tetraene-26-carboxamide] | 260 | –
6 | C=C[C@@H]1C[C@]1(NC(=O)[C@@H]1C[C@@H]2CN1C(=O)[C@H](C1CCCCC1)NC(=O)N1CCC[C@H](C1)OCCCc1cc3c(cc(OCC)nc3cc1OC)O2)C(=O)NS(=O)(=O)C1CC1 [Example 12, (3R,5S,8S,15R)-8-cyclohexyl-N-((1R,2S)-1-{[(cyclopropylsulfonyl)amino]carbonyl}-2-vinylcyclopropyl)-25-ethoxy-21-methoxy-7,10-dioxo-2,16-dioxa-6,9,11,24-tetraazapentacyclo [18.6.2.1^3,6.1^11,15.0^23,27] triaconta-1(27),20,22,23,25,27-hexaene-5-carboxamide] | – | IC50 [3]: 4 nM
7 | C=C[C@@H]1C[C@]1(NC(=O)[C@@H]1C[C@@H]2CN1C(=O)[C@H](C1CCCC1)NC(=O)N1CC[C@@H](C1)OCCC/C=C/c1cc3ccccc3cc1O2)C(=O)NS(=O)(=O)C1CC1 [Example 37, (1R,13E,19S,25S,28S)-25-cyclopentyl-N-((1R,2S)-1-{[(cyclopropylsulfonyl)amino]carbonyl}-2-vinylcyclopropyl)-23,26-dioxo-2,18-dioxa-22,24,27-triazapentacyclo [25.2.1.1^19,22.0^3,12.0^5,10] hentriaconta-3(12),4,5,7,9,10,13-heptaene-28-carboxamide] | 4 | –
8 | C=C[C@@H]1C[C@]1(NC(=O)[C@@H]1C[C@@H]2CN1C(=O)[C@H](C1CCCC1)NC(=O)N1CC[C@H](C1)OCCC/C=C/c1cc3ccc(OC)cc3nc1O2)C(=O)NS(=O)(=O)C1CC1 [Example 21, (1R,13E,19S,25S,28S)-25-cyclopentyl-N-((1R,2R)-1-{[(cyclopropylsulfonyl)amino]carbonyl}-2-vinylcyclopropyl)-7-methoxy-23,26-dioxo-2,18-dioxa-4,22,24,27-tetraazapentacyclo [25.2.1.1^19,22.0^3,12.0^5,10] hentriaconta-3(12),4,5,7,9,10,13-heptaene-28-carboxamide] | 20 | –
9 | C=C[C@@H]1C[C@]1(NC(=O)[C@@H]1C[C@@H]2CN1C(=O)[C@H](C1CCCCC1)NC(=O)N1CC(C1)OCCCCc1cc3c(cc(OCC)nc3cc1OC)O2)C(=O)NS(=O)(=O)C1CC1 [Example 45, (3R,5S,8S)-8-cyclohexyl-N-((1R,2S)-1-{[(cyclopropylsulfonyl)amino]carbonyl}-2-vinylcyclopropyl)-24-ethoxy-20-methoxy-7,10-dioxo-2,14-dioxa-6,9,11,23-tetraazapentacyclo[17.6.2.1^3,6.1^11,13.0^22,26]nonacosa-1(25),19,21,23,26-pentaene-5-carboxamide] | – | IC50 [1]: 6 nM
10 | C=C[C@@H]1C[C@]1(NC(=O)[C@@H]1C[C@@H]2CN1C(=O)[C@H](C1CCCCC1)NC(=O)N1CC(C1)OCCC/C=C/c1cc3c(cc(OCC)nc3cc1OC)O2)C(=O)NS(=O)(=O)C1CC1 [Example 39, (3R,5S,8S,18E)-8-cyclohexyl-N-((1R,2S)-1-{[(cyclopropylsulfonyl)amino]carbonyl}-2-vinylcyclopropyl)-25-ethoxy-21-methoxy-7,10-dioxo-2,14-dioxa-6,9,11,24-tetraazapentacyclo [18.6.2.1^3,6.1^11,13.0^23,27] triaconta-1(26),18,20,22,24,27-hexaene-5-carboxamide] | 19 | –
11 | C=C[C@@H]1C[C@]1(NC(=O)[C@@H]1C[C@@H]2CN1C(=O)[C@H](C1CCCC1)NC(=O)N1CC[C@@H](C1)OC/C=C/Cn1cc(C)c3c4ccccc4nc(c31)O2)C(=O)NS(=O)(=O)C1CC1 [Example 31, (4E,8S,14S,17S,19R)-14-cyclopentyl-N-((1R,2S)-1-{[(cyclopropylsulfonyl)amino]carbonyl}-2-vinylcyclopropyl)-1-methyl-12,15-dioxo-3,6,9,10,12,13,14,15,18,19-decahydro-8H,17H-8,11:16,19-dimethano-7,20-dioxa-2a,11,13,16,21-pentaazabenzo[g] cyclohenicosa[1,2,3-cd]indene-17-carboxamide] | 7 | –
12 | C=C[C@@H]1C[C@]1(NC(=O)[C@@H]1C[C@@H]2CN1C(=O)[C@H](C1CCCCC1)NC(=O)N1CC[C@@H](C1)OC/C=C/c1cc3c(cc(OCC)nc3cc1OC)O2)C(=O)NS(=O)(=O)C1CC1 [Example 13, (3R,5S,8S,14S,17E)-8-cyclohexyl-N-((1R,2S)-1-{[(cyclopropylsulfonyl)amino]carbonyl}-2-vinylcyclopropyl)-24-ethoxy-20-methoxy-7,10-dioxo-2,15-dioxa-6,9,11,23-tetraazapentacyclo [17.6.2.1^3,6.1^11,14.0^22,26] nonacosa-1(25),17,19,21,23,26-hexaene-5-carboxamide] | 9 | –
13 | C=C[C@@H]1C[C@]1(NC(=O)[C@@H]1C[C@@H]2CN1C(=O)[C@H](C(C)(C)C)NC(=O)N1CCC[C@H]1CCCCc1cccc3c1CN(C3)C(=O)O2)C(=O)NS(=O)(=O)C1CC1 [Example 5, (1R,16R,23S,26S)-23-tert-butyl-N-((1R,2S)-1-{[(cyclopropylsulfonyl)amino]carbonyl}-2-vinylcyclopropyl)-3,21,24-trioxo-2-oxa-4,20,22,25-tetraazapentacyclo [23.2.1.1^4,7.0^6,11.0^16,20] nonacosa-6,8,10-triene-26-carboxamide] | – | IC50 [3]: 170 nM
